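Compound exposure: 48 hours, 5 concentrations, 96-well plates. The concentration for 50% growth inhibition is given as GI50. Definition used: TGI = concentration required for complete inhibition of growth.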
Key:
Assay in all cases: growth of human tumour cells (NCI), 48 h
[1] = system: 786-0 renal
[2] = system: A498 renal
[3] = system: A549 NSCLC
[4] = system: ACHN renal
[5] = system: BT-549 breast
[6] = system: CAKI-1 renal
[7] = system: CCRF-CEM leukemia
[8] = system: COLO 205 colon
[9] = system: DU-145 prostate
[10] = system: EKVX NSCLC
[11] = system: HCC-2998 colon
[12] = system: HCT-15 colon
[13] = system: HL-60(TB) leukemia
[14] = system: HOP-62 NSCLC
[15] = system: HOP-92 NSCLC
[16] = system: HS 578T breast
[17] = system: HT29 colon
[18] = system: IGROV1 ovarian
[19] = system: K-562 leukemia
[20] = system: KM12 colon
[21] = system: LOX IMVI melanoma
[22] = system: M14 melanoma
[23] = system: MALME-3M melanoma
[24] = system: MCF7 breast
[25] = system: MDA-MB-231 breast
[26] = system: MDA-MB-435
[27] = system: MOLT-4 leukemia
[28] = system: NCI-H226 lung
[29] = system: NCI-H23 lung
[30] = system: NCI-H460 lung
[31] = system: NCI-H522 lung
[32] = system: NCI/ADR-RES ovarian
[33] = system: OVCAR-3 ovarian
[34] = system: OVCAR-4 ovarian
[35] = system: OVCAR-5 ovarian
[36] = system: OVCAR-8 ovarian
[37] = system: PC-3 prostate
[38] = system: RXF 393 renal
[39] = system: SF-268 CNS
[40] = system: SF-295 CNS
[41] = system: SF-539 CNS
[42] = system: SK-MEL-2 melanoma
[43] = system: SK-MEL-28 melanoma
[44] = system: SK-MEL-5 melanoma
[45] = system: SK-OV-3 ovarian
[46] = system: SN12C renal
[47] = system: SNB-19 CNS
[48] = system: SNB-75 CNS
[49] = system: SW-620 colon
[50] = system: T-47D breast
[51] = system: TK-10 renal
[52] = system: U251 CNS
[53] = system: UACC-257 melanoma
[54] = system: UACC-62 melanoma
[55] = system: UO-31 renal

## COc1ccc(CC(C)=C(c2ccc(OCCN3CCCCCC3)cc2)c2ccc(OCCN3CCCCCC3)cc2)cc1
[1]
  GI50: 83.8 nM
  TGI: 159 nM
[2]
  GI50: 513 nM
  TGI: 1200 nM
[3]
  GI50: 343 nM
  TGI: 1020 nM
[4]
  GI50: 135 nM
  TGI: 374 nM
[5]
  GI50: 681 nM
  TGI: 1370 nM
[6]
  GI50: 345 nM
  TGI: 930 nM
[7]
  GI50: 158 nM
  TGI: 609 nM
[8]
  GI50: 94.4 nM
  TGI: 182 nM
[9]
  GI50: 275 nM
  TGI: 879 nM
[10]
  GI50: 615 nM
  TGI: 1300 nM
[11]
  GI50: 88.1 nM
  TGI: 182 nM
[12]
  GI50: 121 nM
  TGI: 382 nM
[13]
  GI50: 99 nM
  TGI: 229 nM
[14]
  GI50: 626 nM
  TGI: 1280 nM
[15]
  GI50: 254 nM
  TGI: 986 nM
[16]
  GI50: 175 nM
  TGI: 757 nM
[17]
  GI50: 84.3 nM
  TGI: 181 nM
[18]
  GI50: 370 nM
  TGI: 1020 nM
[19]
  GI50: 98.7 nM
  TGI: 220 nM
[20]
  GI50: 240 nM
  TGI: 823 nM
[21]
  GI50: 87.5 nM
  TGI: 161 nM
[22]
  GI50: 88.6 nM
  TGI: 171 nM
[23]
  GI50: 90 nM
  TGI: 171 nM
[24]
  GI50: 87.2 nM
  TGI: 187 nM
[25]
  GI50: 176 nM
  TGI: 487 nM
[26]
  GI50: 89.1 nM
  TGI: 166 nM
[27]
  GI50: 133 nM
  TGI: 406 nM
[28]
  GI50: 531 nM
  TGI: 1420 nM
[29]
  GI50: 709 nM
  TGI: 1410 nM
[30]
  GI50: 100 nM
  TGI: 186 nM
[31]
  GI50: 443 nM
  TGI: 1200 nM
[32]
  GI50: 655 nM
  TGI: 1410 nM
[33]
  GI50: 113 nM
  TGI: 239 nM
[34]
  GI50: 432 nM
  TGI: 1110 nM
[35]
  GI50: 631 nM
  TGI: 1260 nM
[36]
  GI50: 607 nM
  TGI: 1450 nM
[37]
  GI50: 265 nM
  TGI: 860 nM
[38]
  GI50: 348 nM
  TGI: 1050 nM
[39]
  GI50: 474 nM
  TGI: 1150 nM
[40]
  GI50: 300 nM
  TGI: 861 nM
[41]
  GI50: 97.8 nM
  TGI: 194 nM
[42]
  GI50: 756 nM
  TGI: 1500 nM
[43]
  GI50: 91.1 nM
  TGI: 166 nM
[44]
  GI50: 119 nM
  TGI: 312 nM
[45]
  GI50: 612 nM
  TGI: 1240 nM
[46]
  GI50: 657 nM
  TGI: 1350 nM
[47]
  GI50: 232 nM
  TGI: 817 nM
[48]
  GI50: 487 nM
  TGI: 1160 nM
[49]
  GI50: 89 nM
  TGI: 179 nM
[50]
  GI50: 219 nM
  TGI: 955 nM
[51]
  GI50: 729 nM
  TGI: 1470 nM
[52]
  GI50: 107 nM
  TGI: 259 nM
[53]
  GI50: 108 nM
  TGI: 262 nM
[54]
  GI50: 98.7 nM
  TGI: 199 nM
[55]
  GI50: 308 nM
  TGI: 929 nM

From PubChem BioAssay (NCI)
